Measured values reported in PMC10303200 (ACS Central Science, 2023).

Target: T1, PHA-E (Phaseolus vulgaris erythroagglutinin) (Phaseolus vulgaris, UniProt P05088)
T1 construct: purchased Vector Laboratories (Newark, CA, USA)
Assay type: binding
Conditions: read-out: Kd (Native); pH 6.9

T1 sequence (P05088 22-275 limits assumed): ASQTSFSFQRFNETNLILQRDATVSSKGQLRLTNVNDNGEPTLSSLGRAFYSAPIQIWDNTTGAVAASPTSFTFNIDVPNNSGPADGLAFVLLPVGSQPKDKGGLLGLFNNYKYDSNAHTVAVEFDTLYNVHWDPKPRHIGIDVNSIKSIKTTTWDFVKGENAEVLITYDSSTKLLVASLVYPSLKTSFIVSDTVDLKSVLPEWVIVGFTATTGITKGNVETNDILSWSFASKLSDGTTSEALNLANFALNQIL

CC(=O)N[C@H]1[C@H](O[C@H]2[C@H](O)[C@@H](NC(C)=O)C(O)O[C@@H]2CO[C@@H]2O[C@@H](C)[C@@H](O)[C@@H](O)[C@@H]2O)O[C@H](CO)[C@@H](O[C@@H]2O[C@H](CO[C@H]3O[C@H](CO)[C@@H](O)[C@H](O)[C@@H]3O[C@@H]3O[C@H](CO)[C@@H](O[C@@H]4O[C@H](CO)[C@H](O)[C@H](O)[C@H]4O)[C@H](O)[C@H]3NC(C)=O)[C@@H](O)[C@H](O[C@H]3O[C@H](CO)[C@@H](O)[C@H](O)[C@@H]3O[C@@H]3O[C@H](CO)[C@@H](O[C@@H]4O[C@H](CO)[C@H](O)[C@H](O)[C@H]4O)[C@H](O)[C@H]3NC(C)=O)[C@@H]2O)[C@@H]1O (stereo partly drawn) [HexNAc4Hex5Fuc1]
Kd: 12.3 ± 3.6 µM

CC(=O)N[C@H]1[C@H](O[C@H]2[C@H](O)[C@@H](NC(C)=O)C(O)O[C@@H]2CO)O[C@H](CO)[C@@H](O[C@@H]2O[C@H](CO[C@H]3O[C@H](CO)[C@@H](O)[C@H](O)[C@@H]3O[C@@H]3O[C@H](CO)[C@@H](O[C@@H]4O[C@H](CO)[C@H](O)[C@H](O)[C@H]4O)[C@H](O)[C@H]3NC(C)=O)[C@@H](O)[C@H](O[C@H]3O[C@H](CO)[C@@H](O)[C@H](O)[C@@H]3O[C@@H]3O[C@H](CO)[C@@H](O[C@@H]4O[C@H](CO)[C@H](O)[C@H](O)[C@H]4O)[C@H](O)[C@H]3NC(C)=O)[C@@H]2O)[C@@H]1O (stereo partly drawn) [HexNAc4Hex5]
Kd: 13.1 ± 0.8 µM

CC(=O)N[C@H]1[C@H](O[C@H]2[C@H](O)[C@@H](NC(C)=O)C(O)O[C@@H]2CO[C@@H]2O[C@@H](C)[C@@H](O)[C@@H](O)[C@@H]2O)O[C@H](CO)[C@@H](O[C@@H]2O[C@H](CO[C@H]3O[C@H](CO)[C@@H](O)[C@H](O)[C@@H]3O[C@@H]3O[C@H](CO)[C@@H](O)[C@H](O)[C@H]3NC(C)=O)[C@@H](O)[C@H](O[C@H]3O[C@H](CO)[C@@H](O)[C@H](O)[C@@H]3O[C@@H]3O[C@H](CO)[C@@H](O)[C@H](O)[C@H]3NC(C)=O)[C@@H]2O)[C@@H]1O (stereo partly drawn) [HexNAc4Hex3Fuc1]
Kd: 18.6 ± 3.5 µM
